Laboratory results as given in patent US5194586A, “Anti-ATLA antibody binding peptides” (Kuraray Co., Ltd., priority 1989, dated 1993).
Where “and” joins values, the source holds several entries; their conditions need not be identical. Identical values can stand only once.

Test system: anti-ATLA antibody
Experiment: ELISA of Example 24: single peptides and 1:1 mixture, dried stored cups
Assay type: binding, human
Conditions: for OD492: listed as Ex. 9
Experimental: Each serum specimen was assayed for the presence of the anti-ATLA antibody by the following ELISA in which an absorbance was measured.
The peptide prepared in Example 1 or the peptide prepared in Reference Example 9 were each dissolved in 0.01M carbonate buffer (pH 9.5) to prepare a solution containing each peptide. In addition, a solution containing both peptides was prepared by mixing the above two solutions at a concentration ratio of 1:1 (the former:the latter). Each 100 μl of the resulting peptide solutions was added to a cup for ELISA made of polystyrene (the same as mentioned above) and the mixture was allowed to stand at 4° C. overnight so that the peptide is coated on the cup. After removing the peptide solution in these cups, to each cup was added PBS (200 μl ) containing 20% by volume of normal goat serum and the mixture was allowed to stand at room temperature for 3 hours to block non-specific protein binding sites. After removing the blocking solution in the cups, the cups were dried and stored at 4° C.
Using PBS containing 10% by volume of normal goat serum and 0.05% by volume of Tween 20 as a diluent, the diluent and each serum specimen (15 specimens of the ATLV-carrier serum and 15 specimens of the normal human serum) was mixed at a ratio of 20:1 (diluent:specimen; v/v) and each 100 μl of the resulting diluted serums was added to above each assay cup. After incubation at 37° C. for 1 hour, the cups were washed with PBS containing 0.05% by volume of Tween 20 (×3) and then with PBS (×1).
To each resulting assay cup was added PBS containing horseradish peroxidase conjugated goat anti-human IgG antibody (diluted at an optimal concentration with PBS containing 10% by volume of normal goat serum and 0.2% by volume of Tween 20; 100 μl ). After incubation at 37° C. for 30 minutes, these cups were washed with PBS containing 0.05% by volume of Tween 20 (×3) and then with PBS (×1). […] After the mixtures were allowed to stand at room temperature for 15 minutes, to each mixture was added 1N sulfuric acid (100 μl) to stop the reaction and an absorbance at 492 nm (OD492) of each reaction solution was measured.
Cutoff value was determined using the OD492 values of the fifteen normal human serums and used for determination as to whether the specimens are positive or negative for the anti-ATLA antibody. The cutoff value was calculated by the equation: cutoff value = ((mean value of OD492 values of the normal human serum) +2SD). When the presence of the anti-ATLA antibody in each serum specimen was assayed using this cutoff value, all ATLV-carrier serums were determined to be positive and all normal human serums were determined to be negative.

“Example 9: peptide (I), X is -Lys-Lys-Lys-, A is the env peptide fragment (A-3); SEQ ID NO: 14 (KKKFLNTEPSQLPPTAPPLLPHSNLDHI)” was tested, and the OD492 (ATLV-carrier serum, individual specimens No. 1-15, diluent:specimen 20:1) was 0.873 and 0.973 and 1.405 and 0.099 and 1.623 and 1.437 and 0.137 and 0.088 and 0.111 and 1.029 and 1.071 and 1.156 and 1.061 and 0.549 and 1.478, the Cutoff value (mean OD492 of the normal human serum + 2SD) was 0.158 and the “Mean OD492” value (mean of the fifteen normal human serums) was 0.096. The OD492 (normal human serum, individual specimens No. 1-15) was 0.078 and 0.062 and 0.040 and 0.089 and 0.133 and 0.103 and 0.099 and 0.083 and 0.151 and 0.065 and 0.093 and 0.097 and 0.100 and 0.094 and 0.154.
